According to PubChem BioAssay (NCI):
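Compound exposure: 48 hours, 5 concentrations, 96-well plates. Abbreviation: GI50, concentration required for 50% inhibition of growth. TGI is the concentration that stops growth completely.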

Experiments:
Test in all cases: growth of human tumour cells (NCI), 48 h
786-0 renal = tested on: 786-0 renal
A498 renal = tested on: A498 renal
A549 NSCLC = tested on: A549 NSCLC
ACHN renal = tested on: ACHN renal
BT-549 breast = tested on: BT-549 breast
CAKI-1 renal = tested on: CAKI-1 renal
CCRF-CEM leukemia = tested on: CCRF-CEM leukemia
COLO 205 colon = tested on: COLO 205 colon
DU-145 prostate = tested on: DU-145 prostate
EKVX NSCLC = tested on: EKVX NSCLC
HCC-2998 colon = tested on: HCC-2998 colon
HCT-116 colon = tested on: HCT-116 colon
HCT-15 colon = tested on: HCT-15 colon
HL-60(TB) leukemia = tested on: HL-60(TB) leukemia
HOP-62 NSCLC = tested on: HOP-62 NSCLC
HOP-92 NSCLC = tested on: HOP-92 NSCLC
HS 578T breast = tested on: HS 578T breast
IGROV1 ovarian = tested on: IGROV1 ovarian
K-562 leukemia = tested on: K-562 leukemia
KM12 colon = tested on: KM12 colon
LOX IMVI melanoma = tested on: LOX IMVI melanoma
M14 melanoma = tested on: M14 melanoma
MALME-3M melanoma = tested on: MALME-3M melanoma
MCF7 breast = tested on: MCF7 breast
MDA-MB-231 breast = tested on: MDA-MB-231 breast
MDA-MB-435 = tested on: MDA-MB-435
MDA-MB-468 breast = tested on: MDA-MB-468 breast
MOLT-4 leukemia = tested on: MOLT-4 leukemia
NCI-H226 lung = tested on: NCI-H226 lung
NCI-H23 lung = tested on: NCI-H23 lung
NCI-H460 lung = tested on: NCI-H460 lung
NCI-H522 lung = tested on: NCI-H522 lung
NCI/ADR-RES ovarian = tested on: NCI/ADR-RES ovarian
OVCAR-3 ovarian = tested on: OVCAR-3 ovarian
OVCAR-4 ovarian = tested on: OVCAR-4 ovarian
OVCAR-5 ovarian = tested on: OVCAR-5 ovarian
OVCAR-8 ovarian = tested on: OVCAR-8 ovarian
PC-3 prostate = tested on: PC-3 prostate
RPMI-8226 leukemia = tested on: RPMI-8226 leukemia
RXF 393 renal = tested on: RXF 393 renal
SF-268 CNS = tested on: SF-268 CNS
SF-295 CNS = tested on: SF-295 CNS
SF-539 CNS = tested on: SF-539 CNS
SK-MEL-2 melanoma = tested on: SK-MEL-2 melanoma
SK-MEL-28 melanoma = tested on: SK-MEL-28 melanoma
SK-MEL-5 melanoma = tested on: SK-MEL-5 melanoma
SK-OV-3 ovarian = tested on: SK-OV-3 ovarian
SN12C renal = tested on: SN12C renal
SNB-19 CNS = tested on: SNB-19 CNS
SNB-75 CNS = tested on: SNB-75 CNS
SR leukemia = tested on: SR leukemia
SW-620 colon = tested on: SW-620 colon
T-47D breast = tested on: T-47D breast
TK-10 renal = tested on: TK-10 renal
U251 CNS = tested on: U251 CNS
UACC-257 melanoma = tested on: UACC-257 melanoma
UACC-62 melanoma = tested on: UACC-62 melanoma
UO-31 renal = tested on: UO-31 renal

## O=C(COc1ccc(NC(=O)Nc2ccccc2)cc1)N=Nc1c(O)[nH]c2ccc([N+](=O)[O-])cc12
786-0 renal
  GI50: 5.69 µM
  TGI: 23.8 µM
A498 renal
  GI50: 11.4 µM
  TGI: 32.5 µM
A549 NSCLC
  GI50: > 100 µM
  TGI: > 100 µM
ACHN renal
  GI50: 29.3 µM
  TGI: > 100 µM
BT-549 breast
  GI50: 1.89 µM
  TGI: 5.37 µM
CAKI-1 renal
  GI50: 47.7 µM
  TGI: > 100 µM
CCRF-CEM leukemia
  GI50: 2.45 µM
  TGI: 6.17 µM
COLO 205 colon
  GI50: 1.94 µM
  TGI: 3.55 µM
DU-145 prostate
  GI50: 3.88 µM
  TGI: > 100 µM
EKVX NSCLC
  GI50: 5.02 µM
  TGI: 45.7 µM
HCC-2998 colon
  GI50: 2.24 µM
  TGI: 5.15 µM
HCT-116 colon
  GI50: 1.72 µM
  TGI: 3.13 µM
HCT-15 colon
  GI50: 99.8 µM
  TGI: > 100 µM
HL-60(TB) leukemia
  GI50: 8.08 µM
  TGI: > 100 µM
HOP-62 NSCLC
  GI50: 2.42 µM
  TGI: 7.08 µM
HOP-92 NSCLC
  GI50: 1.76 µM
  TGI: 3.39 µM
HS 578T breast
  GI50: 2.09 µM
  TGI: 5.8 µM
IGROV1 ovarian
  GI50: 3.43 µM
  TGI: 15.5 µM
K-562 leukemia
  GI50: 3.02 µM
  TGI: 7.65 µM
KM12 colon
  GI50: 1.95 µM
  TGI: 3.96 µM
LOX IMVI melanoma
  GI50: 1.7 µM
  TGI: 3.15 µM
M14 melanoma
  GI50: 2.86 µM
  TGI: 11.3 µM
MALME-3M melanoma
  GI50: 1.63 µM
  TGI: 3.07 µM
MCF7 breast
  GI50: 1.94 µM
  TGI: 4.02 µM
MDA-MB-231 breast
  GI50: 1.82 µM
  TGI: 3.41 µM
MDA-MB-435
  GI50: 1.71 µM
  TGI: 3.26 µM
MDA-MB-468 breast
  GI50: 1.85 µM
  TGI: 3.31 µM
MOLT-4 leukemia
  GI50: 2.37 µM
  TGI: 5.08 µM
NCI-H226 lung
  GI50: 2.31 µM
  TGI: 5.94 µM
NCI-H23 lung
  GI50: 2.09 µM
  TGI: 4.27 µM
NCI-H460 lung
  GI50: 1.89 µM
  TGI: 4.58 µM
NCI-H522 lung
  GI50: 1.61 µM
  TGI: 3.15 µM
NCI/ADR-RES ovarian
  GI50: > 100 µM
  TGI: > 100 µM
OVCAR-3 ovarian
  GI50: 1.66 µM
  TGI: 3.18 µM
OVCAR-4 ovarian
  GI50: 1.84 µM
  TGI: 3.96 µM
OVCAR-5 ovarian
  GI50: 4.11 µM
  TGI: > 100 µM
OVCAR-8 ovarian
  GI50: 1.89 µM
  TGI: 3.75 µM
PC-3 prostate
  GI50: 2.05 µM
  TGI: 4.76 µM
RPMI-8226 leukemia
  GI50: 5.39 µM
  TGI: > 100 µM
RXF 393 renal
  GI50: 2.31 µM
  TGI: 6.01 µM
SF-268 CNS
  GI50: 1.91 µM
  TGI: 4.08 µM
SF-295 CNS
  GI50: 6.27 µM
  TGI: 32.8 µM
SF-539 CNS
  GI50: 1.67 µM
  TGI: 3.14 µM
SK-MEL-2 melanoma
  GI50: 1.76 µM
  TGI: 3.46 µM
SK-MEL-28 melanoma
  GI50: 1.79 µM
  TGI: 3.65 µM
SK-MEL-5 melanoma
  GI50: 2.15 µM
  TGI: 5.09 µM
SK-OV-3 ovarian
  GI50: 5.45 µM
  TGI: 21 µM
SN12C renal
  GI50: 1.65 µM
  TGI: 3.3 µM
SNB-19 CNS
  GI50: 1.98 µM
  TGI: 4.55 µM
SNB-75 CNS
  GI50: 1.46 µM
  TGI: 3.39 µM
SR leukemia
  GI50: 2.65 µM
  TGI: 6.32 µM
SW-620 colon
  GI50: 1.69 µM
  TGI: 3.83 µM
T-47D breast
  GI50: 1.71 µM
  TGI: 3.6 µM
TK-10 renal
  GI50: 17.3 µM
  TGI: 38.4 µM
U251 CNS
  GI50: 1.71 µM
  TGI: 3.12 µM
UACC-257 melanoma
  GI50: 2.01 µM
  TGI: 4.91 µM
UACC-62 melanoma
  GI50: 1.83 µM
  TGI: 3.92 µM
UO-31 renal
  GI50: > 100 µM
  TGI: > 100 µM

## CC(C)COc1nc2c(c(=O)n(C)c(=O)n2C)n1C
MDA-MB-468 breast
  GI50: > 100 µM
  TGI: > 100 µM

## c1ccc(CNCCN(CCNCc2ccccn2)Cc2ccc3ccccc3c2)nc1
MDA-MB-468 breast
  GI50: 2.18 µM
  TGI: 4.92 µM
